Literature values in patent US8597613B2, “Radiolabeled lymphatic staining agents and methods for making” (Iso-Tex Diagnostics, Inc, priority 2004, dated 2013).

Conditions: 0.1-0.5 cc injected into the breast following wire-localization procedures

CN(C)c1ccc2nc3ccc(=[N+](C)C)cc-3sc2c1 [methylene blue, phenothiazin-5-ium-3,7-bis(dimethylamino)-chloride]
reported adverse events: no reported adverse events
